Experimental data reported in US10300155B2, “Alpha-synuclein ligands” (Washington University, priority 2015, dated 2019).
Values joined by “and” are separate entries in the source; they are usually repeats but may differ in a detail not shown here. Equal entries are not always repeated. Where two headings read alike, the source gives them in different places.

Target: T1, α-synuclein fibrils (Homo sapiens, UniProt P37840)
T1 construct: made in house; host or cells: E. coli BL21(DE3)RIL
Test: ThT competitive assay for α-synuclein fibrils (Table 1)
Type: binding
Details: for EC50: α-synuclein fibrils
Protocol: Upon binding to amyloid fibrils, a peak at approximately 440 nm becomes dominant with the fluorescent emission maximum shifted to 480 nm. This is accompanied by a strong enhancement of the fluorescence.
α-Synuclein recombinant protein was produced in E. coli. […] Freshly transformed BL21 colonies were inoculated into 2 L baffled flasks containing 250 mL sterilized TB (1.2% bactotryptone, 2.4% yeast extract, 0.4% glycerol, 0.17 M KH2PO4, 0.72 M K2HPO4) with 50 μg/ml ampicillin, and incubated overnight at 37° C. with shaking.
To determine the concentration of fibrils, the reaction mixture (100 μL) was centrifuged at 18,000×g for 10 minutes to separate fibrils from monomer. The α-synuclein monomer and other soluble proteins in the supernatant were removed, and the fibril pellet was resuspended in 100 μL solution of Tris-HCl (20 mM) and NaCl (100 mM). This fibril suspension was used in a bicinchoninic acid (BCA) protein assay along with a bovine serum albumin (BSA) standard curve to determine the concentration of fibrils in the 72 hour fibril reaction mixture.
To prepare the fibrils for performing binding assays, the fibril reaction mixture prepared above was centrifuged at 18,000×g for 10 minutes.
Once the ThT-α-synuclein saturation binding curve and dissociation constant (Kd) were determined the competitive assay for determining the binding affinity of various test compounds was conducted. […] The mixture was incubated at room temperature for 60 minutes on the shaking plate. The fluorescent intensity for each cell was measured by the fluorescence reader at λex and λem. The Ki value for each compound was calculated by the corresponding inhibition curve.
The Ki values were derived from the EC50 values using the Cheng-Prusoff equation: Ki=EC50/(1+[radioligand]/Kd). See FIGS. 17.1-31.2 for the inhibition curves for each compound in the ThioT competitive binding assay.

[1] = average, read-out: Ki (nM) α-syn (avg)
[2] = individual determinations, read-out: Ki (nM) α-syn
[3] = average, read-out: EC50 (nM) EC50 (avg)
[4] = individual determinations, read-out: EC50 (nM) EC50

Compound	Ki [1]	Ki [2]	EC50 [3]	EC50 [4]
COc1ccc2c(c1)NC(=O)/C(=C/C=C/c1ccc([N+](=O)[O-])cc1)O2 [TZ-19-122]	598 nM	598 nM	–	–
COc1ccc2c(c1)NC(=O)/C(=C/C=C/c1ccc([N+](=O)[O-])cc1)S2 [TZ-19-124]	254 nM	254 nM	–	–
C(=C\c1ccccc1)/CN1c2ccccc2Sc2ccccc21 [TZ-19-126]	3880 nM	3880 nM	–	–
C(=C\c1ccccc1)/CN1c2ccccc2Oc2ccccc21 [TZ-19-136]	3060 nM	3060 nM	–	–
CN(C)c1ccc(/C=C/CN2c3ccccc3Oc3ccccc32)cc1 [TZ-19-138]	3090 nM	3090 nM	–	–
COc1ccc2c(c1)Oc1cc([N+](=O)[O-])ccc1N2C/C=C/c1ccc(N(C)C)cc1 [TZ-19-140]	467 nM	467 nM	–	–
COc1ccc2nc(/C=C/c3ccccc3)ccc2c1 [TZ-19-144]	196 nM	196 nM	–	–
COc1ccc2ccc(/C=C/c3ccccc3)nc2c1 [TZ-19-146]	666 nM	666 nM	–	–
COc1cccc2ccc(/C=C/c3ccccc3)nc12 [TZ-19-148]	614 nM	614 nM	–	–
COc1cccc2nc(/C=C/c3ccccc3)ccc12 [TZ-19-152]	532 nM	532 nM	–	–
COc1ccc2nc(/C=C/c3ccncc3)ccc2c1 [TZ-19-158]	29.1 nM	29.1 nM	–	–
COc1ccc(C(=O)C2CCN(C(=O)COC(=O)c3ccc(C(C)(C)C)cc3)CC2)cc1 [TZ-20-11]	5090 nM	5090 nM	–	–
COc1ccc(C2CCN(C(=O)COC(=O)c3ccc(C(C)(C)C)cc3)CC2)cc1 [TZ-20-23]	109 nM	109 nM	–	–
COC(=O)c1ccc(/C=C/c2ccncc2)cc1 [TZ-20-35]	16.1 nM	16.1 nM	–	–
COc1ccc(C2CCN(C(=O)c3ccc(/C=C/c4ccncc4)cc3)CC2)cc1 [TZ-20-39]	2460 nM	2460 nM	–	–
COc1ccc(C(=O)N2CCN(C(=O)c3ccc(/C=C/c4ccncc4)cc3)CC2)cc1 [TZ-20-45]	181 nM	181 nM	–	–
COc1ccc(C(=O)C2CCN(C(=O)c3ccc(/C=C/c4ccncc4)cc3)CC2)cc1 [TZ-20-51]	184 nM	184 nM	–	–
O=[N+]([O-])c1ccc(/C=C/c2ccncc2)cc1 [TZ-20-59]	52.8 nM	52.8 nM	–	–
O=C(OCCF)c1ccc(/C=C/c2ccncc2)cc1 [TZ-20-63]	96 nM	96 nM	–	–

Compound	Ki [1]	Ki [2]	EC50 [3]	EC50 [4]
CC(C)OC(=O)c1ccc(/C=C/c2ccncc2)cc1 [TZ-20-65]	75.6 nM	75.6 nM	–	–
CNC(=O)c1ccc(/C=C/c2ccncc2)cc1 [TZ-20-69]	85.6 nM	85.6 nM	–	–
Fc1ccc(/C=C/c2ccncc2)cc1 [TZ-20-73]	432 nM	432 nM	–	–
FC(F)(F)c1ccc(/C=C/c2ccncc2)cc1 [TZ-20-75]	36.8 nM	36.8 nM	–	–
COC(=O)C(Cc1ccc(O)cc1)NC(=O)c1ccc(/C=C/c2ccncc2)cc1 (stereo not shown) [TZ-20-77]	523 nM	523 nM	–	–
O=C(NCCF)c1ccc(/C=C/c2ccncc2)cc1 [TZ-20-79]	115 nM	115 nM	–	–
COc1ccccc1NC(=O)c1ccc(/C=C/c2ccncc2)cc1 [TZ-20-81]	150 nM	150 nM	–	–
COc1ccc(NC(=O)c2ccc(/C=C/c3ccncc3)cc2)cc1 [TZ-20-83]	–	19.1 nM	–	–
CNc1ccc(/C=C/c2ccncc2)cc1 [TZ-20-97]	–	33.9 nM	–	–
COC(=O)c1ccc(/C=C/C=C/c2ccncc2)cc1 [TZ-20-111]	–	56 nM	–	–
COc1ccc(/C=C/c2cnccn2)cc1 [TZ-22-1-2]	31.9 nM	31.9 nM	–	–
COc1ccc(/C=C/c2ccncn2)cc1 [TZ-22-19-1]	154 nM	154 nM	–	–
COc1ccc(/C=C/c2cccnn2)cc1 [TZ-22-23-1]	1140 nM	1140 nM	–	–
COc1ccc(/C=C/c2ncccn2)cc1 [TZ-22-31-1]	2770 nM	2770 nM	–	–
CN(C)c1ccc(/C=C/c2cnccn2)cc1 [TZ-22-35-1]	698 nM	698 nM	–	–
COc1ccc(/C=C/c2cnccn2)cc1OC [TZ-22-37-1]	213 nM	213 nM	–	–
Brc1ccc(/C=C/c2cnccn2)cc1 [TZ-22-47-1]	76.7 nM	76.7 nM	–	–
COc1cccc(/C=C/c2cnccn2)c1 [TZ-22-49-1]	117 nM	117 nM	–	–
COc1ccc2ccc(/C=C/c3ccncc3)nc2c1 [TZ-23-02]	71.8 nM	71.8 nM	–	–

Compound	Ki [1]	Ki [2]	EC50 [3]	EC50 [4]
COc1cccc2nc(/C=C/c3ccncc3)ccc12 [TZ-23-06]	96.3 nM	96.3 nM	–	–
COc1ccc2nc(/C=C/c3cnccn3)ccc2c1 [TZ-23-12]	36.4 nM	36.4 nM	–	–
COc1ccc2ccc(/C=C/c3cnccn3)nc2c1 [TZ-23-16]	3180 nM	3180 nM	–	–
COc1cc(/C=C/c2cnccn2)nc2ccccc12 [TZ-23-20]	3030 nM	3030 nM	–	–
O=C(Nc1ccc(Br)cc1)c1ccc(/C=C/c2ccncc2)cc1 [TZ-23-52]	10.4 nM	–	–	–
O=C(Nc1ccc(I)cc1)c1ccc(/C=C/c2ccncc2)cc1 [TZ-23-56]	19.8 nM	19.8 nM	–	–
O=C(Nc1ccc(OCCF)cc1)c1ccc(/C=C/c2ccncc2)cc1 [TZ-23-88]	32.1 nM	24.3 nM and 40 nM	83.8 nM	63.5 nM and 104 nM
Fc1ccc(-c2ccc(-c3nc4cc(Br)ccc4o3)cc2C(F)(F)F)cn1 [TZ-31-108]	1540 nM	1540 nM	4030 nM	4030 nM
OCc1ccc2oc(-c3ccc(-c4ccc(F)nc4)c(C(F)(F)F)c3)nc2c1 [TZ-31-123]	31400 nM	31400 nM	82000 nM	82000 nM
COC(=O)c1ccc2oc(-c3ccc(-c4ccc(F)nc4)c(C(F)(F)F)c3)nc2c1 [TZ-31-125]	1560 nM	1560 nM	4090 nM	4090 nM
COc1ccc(/C=C/c2ccoc2)cc1 [TZ-34-27]	551 nM	1140 nM and 201 nM and 310 nM	1440 nM	2990 nM and 527 nM and 812 nM
COc1ccc(/C=C/c2cncs2)cc1 [TZ-34-35]	323 nM	313 nM and 333 nM	845 nM	819 nM and 871 nM
COc1ccc(/C=C/c2cc(C)cs2)cc1 [TZ-34-38]	252 nM	387 nM and 114 nM and 256 nM	661 nM	1010 nM and 299 nM and 671 nM
COc1ccc(/C=C/c2cc(Br)cs2)cc1 [TZ-34-39]	256 nM	233 nM and 278 nM	668 nM	609 nM and 727 nM
COc1ccc(/C=C/c2ccc(-c3cccs3)s2)cc1 [TZ-34-40]	450 nM	500 nM and 400 nM	1180 nM	1310 nM and 1050 nM
COc1ccc(/C=C/c2ccc(C=O)s2)cc1 [TZ-34-41]	148 nM	148 nM	387 nM	387 nM
COc1ccc(/C=C/c2ccc(CO)s2)cc1 [TZ-34-46]	108 nM	105 nM and 110 nM	281 nM	275 nM and 287 nM
Brc1ccc(/C=C/c2cccs2)cc1 [TZ-34-55]	198 nM	198 nM	519 nM	519 nM
Brc1ccc(/C=C/c2ccsc2)cc1 [TZ-34-58]	319 nM	319 nM	834 nM	834 nM
